Here are results for two molecules from US20250057963A1, “DISCOVERY OF PIPERLONGUMINE AS A NOVEL E3 LIGASE LIGAND” (University of Florida Research Foundation, Incorporated, priority 2021, published 2025).

“Also recorded” adds a separate entry of the source.

For data set [1], the target named is T1, CDK9 (Homo sapiens, UniProt P50750). Description: TMT-based global proteomics in MOLT4 cells. It counts as cell-based. On the set-up: endogenous in cells; host or cells: MOLT4. Conditions: 0.1 μM 955 for 1 h and 6 h, 1 μM SNS-032 for 6 h. The text has this:
Sample Preparation and LC-MS/MS analysis. Total protein from cell pellets was reduced, alkylated, and purified by chloroform/methanol extraction prior to digestion with sequencing grade modified porcine trypsin (Cat. No. V5111, Promega). Tryptic peptides were labeled using tandem mass tag isobaric labeling reagents (Cat. No. A34808, ThermoFisher) following the manufacturer's instructions and combined into one 11-plex sample group. The labeled peptide multiplex was separated into 46 fractions on a 100×1.0 mm Acquity BEH C18 column (Waters) using an UltiMate 3000 UHPLC system (Thermo) with a 50 min gradient from 99:1 to 60:40 bufferA:B (Buffer A: 0.1% formic acid, 0.5% acetonitrile; Buffer B: 0.1% formic acid, 99.9% acetonitrile. Both buffers adjusted to pH 10 with ammonium hydroxide for offline separation) ratio under basic pH conditions, and then consolidated into 18 super-fractions. […]
Data processing and analysis. Proteins were identified and MS3 reporter ions quantified using MaxQuant (version 2.0.3.0; Max Planck Institute) against the Homo sapiens UniprotKB database (March 2021) with a parent ion tolerance of 3 ppm, a fragment ion tolerance of 0.5 Da, and a reporter ion tolerance of 0.003 Da. Scaffold Q+S (Proteome Software) was used to verify MS/MS based peptide and protein identifications (protein identifications were accepted if they could be established with less than 1.0% false discovery and contained at least 2 identified peptides; protein probabilities were assigned by the Protein Prophet algorithm (Nesvizhskii et al., 2003) and to perform reporter ion-based statistical analysis. Protein TMT MS3 reporter ion intensity values were assessed for quality using ProteiNorm for a systematic evaluation of normalization methods (Graw et al., 2020). Cyclic loess normalization (Ritchie et al., 2015) was utilized since it had the highest intragroup correlation and the lowest variance amongst the samples. […]
Target sequence in this assay (P50750 whole entry): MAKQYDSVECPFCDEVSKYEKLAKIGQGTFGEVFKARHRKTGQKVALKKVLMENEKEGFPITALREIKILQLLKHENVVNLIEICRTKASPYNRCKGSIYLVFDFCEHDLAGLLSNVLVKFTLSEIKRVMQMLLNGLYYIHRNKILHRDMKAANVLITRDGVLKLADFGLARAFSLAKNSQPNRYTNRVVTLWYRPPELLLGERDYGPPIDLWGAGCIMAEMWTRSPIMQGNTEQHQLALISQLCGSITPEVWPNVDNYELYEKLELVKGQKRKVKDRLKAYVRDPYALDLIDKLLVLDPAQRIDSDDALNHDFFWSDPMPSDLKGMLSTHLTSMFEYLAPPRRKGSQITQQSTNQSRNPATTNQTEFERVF

In another data set the target is T2, CDK10 (Homo sapiens, UniProt Q15131).
T2 construct: endogenous in cells; host or cells: MOLT4
Conditions: b290: Kinativ screening in MOLT4 lysates (Olson et al., 2018); cited from earlier work.

For data set [2], the target named is T1, CDK9. Conditions: Table 1; b281 prints these figures as IC50; cited from earlier work.
Target sequence in this assay (P50750 whole entry, species assumed): as the sequence (P50750 whole entry) above
Target sequence in this assay (O60563 whole entry partner, species assumed): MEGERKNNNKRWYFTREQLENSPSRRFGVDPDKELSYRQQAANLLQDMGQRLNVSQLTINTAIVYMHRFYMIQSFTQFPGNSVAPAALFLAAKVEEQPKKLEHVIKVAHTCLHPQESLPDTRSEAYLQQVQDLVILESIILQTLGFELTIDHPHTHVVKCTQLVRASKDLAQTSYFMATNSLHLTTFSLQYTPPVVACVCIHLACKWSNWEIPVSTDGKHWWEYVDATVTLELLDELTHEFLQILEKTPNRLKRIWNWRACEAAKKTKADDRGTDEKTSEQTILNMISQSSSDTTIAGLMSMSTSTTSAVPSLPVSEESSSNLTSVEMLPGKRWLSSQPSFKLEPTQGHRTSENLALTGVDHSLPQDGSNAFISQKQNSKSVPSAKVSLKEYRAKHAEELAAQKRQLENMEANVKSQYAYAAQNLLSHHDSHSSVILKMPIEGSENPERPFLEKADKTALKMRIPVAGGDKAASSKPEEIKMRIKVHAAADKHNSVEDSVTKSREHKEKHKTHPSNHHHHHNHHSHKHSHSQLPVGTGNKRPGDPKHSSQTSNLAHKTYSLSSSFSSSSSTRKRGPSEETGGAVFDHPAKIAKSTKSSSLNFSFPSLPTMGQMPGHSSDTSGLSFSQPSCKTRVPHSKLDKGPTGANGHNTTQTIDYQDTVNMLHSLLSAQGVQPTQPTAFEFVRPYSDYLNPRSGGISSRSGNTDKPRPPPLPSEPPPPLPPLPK
Data set [3] concerns LNCaP, 22RV1, PC3 and DU145 prostate cancer cell lines. Description: Viability (MTS) assay in prostate cancer cell lines. Conditions: Homo sapiens, 72 h, read-out: EC50, anti-proliferation. In kind it is cell-based, Human. On the procedure:
All the cell lines were maintained in a humidified incubator at 37° C. and 5% CO2. […] The data were expressed as average % cell viability and fitted in non-linear regression curves using GraphPad Prism 9 (GraphPad Software, La Jolla, CA, USA).

For data set [4], the system named is LNCaP prostate cancer cells and H1299 lung cancer cells. The data set is described as follows: Cell killing (MTS) with or without KEAP1 siRNA knockdown. Conditions: KEAP1 siRNA vs control siRNA 48 h; compound 0.1 mM (LNCaP) or 0.3 mM (H1299) for 24 h. In kind it is cell-based, Human. The method, then: FIGS. 19A to 19B show percentages of cell killing in LNCaP (FIG. 19A) and H1299 (FIG. 19B) cells with or without KEAP1 knockdown. LNCaP and H1299 cells were treated with control siRNA or siRNAs targeting KEAP1 for 48 h and then reseeded and treated with indicated compound (0.1 mM for LNCaP cells and 0.3 mM for H1299 cells) for 24 h. The cell viability was then determined by MTS assay. The data are presented as mean±SD from three replicate cell cultures in a representative experiment. Data are representative of two independent experiments. Statistical significance was calculated with unpaired two-tailed Student's t-tests. **P<0.01; ***P<0.001; NS: not significant.
Viability (MTS) assays in various cancer cells followed the methods described in our previous report (Khan et al., 2019). The data were expressed as average % cell viability and fitted in non-linear regression curves using GraphPad Prism 9 (GraphPad Software, La Jolla, CA, USA).

Data set [5] addresses T1, CDK9. The data set is described as follows: CDK9 degradation in MOLT4 cells (immunoblot). In kind it is cell-based. Details: endogenous in cells; host or cells: MOLT4, 293T, K562, NCI-H1299, LNCaP. Conditions: 6 h treatment. On the procedure: All the cell lines were maintained in a humidified incubator at 37° C. and 5% CO2.
Data analysis was performed using GraphPad Prism software (version 9) unless indicated otherwise. All graphs presented represent the mean±standard deviation of the mean (SD) unless otherwise stated.
Target sequence in this assay (P50750 whole entry): as the sequence (P50750 whole entry) above
(In western blotting, separated proteins are transferred to a membrane and probed.)

In data set [6] the target is T1, CDK9. The settings on record: Olson et al., 2018; cited from earlier work.
Target sequence in this assay (P50750 whole entry, species assumed): as the sequence (P50750 whole entry) above

T2 sequence (Q15131 whole entry): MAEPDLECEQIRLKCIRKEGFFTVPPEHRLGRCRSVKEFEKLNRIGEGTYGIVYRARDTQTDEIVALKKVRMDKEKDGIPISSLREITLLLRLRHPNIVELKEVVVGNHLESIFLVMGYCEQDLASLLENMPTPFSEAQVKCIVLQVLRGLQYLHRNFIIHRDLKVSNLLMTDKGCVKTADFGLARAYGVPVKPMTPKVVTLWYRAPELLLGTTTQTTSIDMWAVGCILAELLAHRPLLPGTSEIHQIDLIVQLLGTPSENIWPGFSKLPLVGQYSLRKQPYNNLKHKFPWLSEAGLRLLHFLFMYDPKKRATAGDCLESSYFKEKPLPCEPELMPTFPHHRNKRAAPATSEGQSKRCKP

On to `CC(C)(C)c1cnc(CSc2cnc(NC(=O)C3CCNCC3)s2)o1` [SNS-032, N-(5-(((5-(tert-butyl)oxazol-2-yl)methyl)thio)thiazol-2-yl)piperidine-4-carboxamide, reference compound], for which the “CDK9 protein level (global proteome)” value at CDK9 [1] is listed as “no significant effect on CDK9”. In addition, the “binding of SNS-032 to CDK10” value on CDK10 is reported as “very low binding affinity; also recorded: moderate binding”. Besides, the “Binding Affinity, CDK9” value on CDK9 [2] is recorded as “CDK9: 4 nM”. Moreover, the EC50 in data set [3] is more than 100 nM. In addition, the “effect of KEAP1 knockdown on cytotoxicity of the compound” value in data set [4] is recorded as “no significant effect”. In addition, the “CDK9 degradation with short-term treatment” value at CDK9 [5] was “no degradation effect; also recorded: could not”.

In the case of `CC(C)(C)c1cnc(CSc2cnc(NC(=O)C3CCN(CC(=O)NCCOCCOCCOCCNc4cccc5c4C(=O)N(C4CCC(=O)NC4=O)C5=O)CC3)s2)o1` (stereo not shown) [THAL-SNS-032], on CDK9 [6], the “degradation selectivity among SNS-032 targets” value is recorded as “could only degrade CDK9 but not other known SNS-032 targets”.
